“And” between values parts separate entries of the source, which are not always exact repeats. Identical values can stand only once.
Columns and labels:
HIV = assay: Anti-HIV activity in MT-2; type: cell-based; conditions: Human immunodeficiency virus 1; MT-2, summary table; read-out: MT-2 EC50
Excerpt: Obviously, there is a structure activity relationship with respect to the efficacy of the compounds of the present invention. Factors that affect the relationship may include steric effects, electronic effects, (electron withdrawing or electron donating ability), resonance effects, hydrophobic,hydrophilic, hydrogen bonding parameters, etc. […] Based on the data, it has been determined that there is a direct correlation between the log (EC50)^-1 and the electronic effect of a substituent (a) or more precisely the sum of the sigma (σ) values. (The greater the electron withdrawing ability of a substituent, the higher the value of σ, while a better electron donating group has a lower value of σ.) There appears to be a direct correlation between log (EC50)^-1 and the Σσ; as the Σσ increases, so does the log (EC50)^-1. The addition of substituents to the diphenyl sulfone will affect the factors discussed hereinabove, thus both the log (EC50)^-1 and the Σσ will be affected. Thus for the diphenyl sulfone derivative [drawing 25] the relation is […]

[1] = Dye conversion (MTT formazan) assay of drug-induced cytotoxicity; type: cell-based; conditions: mouse, sc-1 cells; for cytotoxicity at 72 h, 1000 µM / viability at 72 h, 1000 µM: 1 × 10^-3 M; for cytotoxicity at 72 h, 1000 µM / cytotoxicity at 72 h, 100 µM / cytotoxicity at 72 h, 10 µM / cytotoxicity at 72 h, 1 µM / cytotoxicity at 72 h, 0.1 µM / cytotoxicity at 72 h, 0.01 µM: read-out: % Reduction; for viability at 72 h, 1000 µM / viability at 72 h, 100 µM / viability at 72 h, 10 µM / viability at 72 h, 1 µM / viability at 72 h, 0.1 µM / viability at 72 h, 0.01 µM: read-out: % of Control; for cytotoxicity at 72 h, 100 µM / viability at 72 h, 100 µM: 1 × 10^-4 M; for cytotoxicity at 72 h, 10 µM / viability at 72 h, 10 µM: 1 × 10^-5 M; for cytotoxicity at 72 h, 1 µM / viability at 72 h, 1 µM: 1 × 10^-6 M; for cytotoxicity at 72 h, 0.1 µM / viability at 72 h, 0.1 µM: 1 × 10^-7 M; for cytotoxicity at 72 h, 0.01 µM / viability at 72 h, 0.01 µM: 1 × 10^-8 M
Method: (§1) A dye conversion assay to determine drug-induced cytotoxicity was performed. This assay is based on the conversion of MTT to a formazan product in living cells. This conversion results in a color change which can be detected spectrophotometrically. A 96-well tissue culture plate was seeded with […] per well at the time that the 6-well plates were seeded for the UV-XC plaque assay. The following day, the medium was decanted and the cell control cultures received 100 ul of medium. The drug controls received 80 ul of drug and 20 ul of medium such that the final concentration of drug was equivalent to that used in the 6-well plates. On day 3 after addition of the drug, 50 ul of a 2 mg/ml solution of MTT in EMEM with 5% heat-inactivated FBS were added each well. The culture was incubated for 7 hours and 100 ul of a 10% SDS: 0.01 N HCL solution was added to each well. The culture was incubated overnight and the following morning the optical density (O.D.) was read at 570 nm wavelength on a Perkin-Elmer spectrophotometer. The percent reduction in the drug-treated cell. O.D. reading compared to the control cell O.D. reading was calculated.
(§2) Using the procedure, the following data is generated from representative compounds of the presnet invention.

SC-1 cells = assay: as above; type: cell-based; conditions: 570 nm
Method: as §1, §2

[2] = XTT toxicity control, uninfected culture, CEM-V; type: cell-based; conditions: human, cem-v cells, read-out: Uninfected culture response
Method: (§3) Another assay for testing the efficacy of the compounds is the procedure* used in the National Cancer Institute's test for agents active against Human Immunodeficiency Virus (HIV). It is designed to detect agents acting at any stage of the virus reproductive cycle. The assay basically involves the killing of T4 lymphocytes by HIV. Small amounts of HIV are added to cells, and a complete cycle of virus reproduction is necessary to obtain the required cell killing. Agents that interact with virions, cells, or virus gene-products to interfere with viral activities will protect cells from cytolysis. The system is automated in several features to accommodate large numbers of candidate agents and is generally designed to detect anti-HIV activity. However, compounds that degenerate, or are rapidly metabolized in the culture conditions may not show activity in this screen. All tests are compared with at least one positive (e.g., AZT-treated) control done at the same time under identical conditions.
(§4) * Weislow. O. W., Kiser, R., Fine, D., Bader, J., Shoemaker, R. H., Boyd, M. R.: New soluble-formazan assay for HIV-1 cytopathic effects: application to high-flux screening of synthetic and natural products for AIDS-antiviral activity. J. Natl. Cancer Inst. 81:577-586, 1989.
(§5) 1. The Candidate agent is dissolved in dimethyl sulfoxide (unless otherwise instructed) then diluted 1:100 in cell culture medium before preparing serial half-log10 dilutions. T4 lymphocytes (CEM cell line) are added and after a brief interval HIV-1 added, resulting in a 1:200 final dilution of the compound. Uninfected cells with the compound serve as a toxicity control, and infected and uninfected cells without compound serve as basic controls.
(§6) 2. Cultures are incubated at 37° in a 5% carbon dioxide atmosphere for 6 days.
(§7) 3. The tetrazolium salt, XTT, is added to all wells, and cultures are incubated to allow formazan color development by viable cells.
(§8) 4. Individual wells are analyzed spectrophotometrically to quantitate formazan production, and in addition are viewed microscopically for detection of viable cells and confirmation of protective activity.
(§9) 5. Drug-treated virus-infected cells are compared with drug-treated noninfected cells and with other appropriate controls (untreated infected and untreated noninfected: cells, drug-containing wells without cells, etc.) on the same plate.
(§10) 6. Data are reviewed in comparison with other tests done at the same time and a determination about activity is made.

CEM-V = assay: XTT toxicity control, uninfected culture, CEM-V; type: cell-based
Method: as §3, §4, §5, §6, §7, §8, §9, §10

[3] = Storage in a clear glass bottle; type: physicochemical; conditions: several weeks of storage in a clear glass bottle

Structure (SMILES)	EC50 (HIV) [µM]	cytotoxicity at 72 h, 1000 µM [1] [%]	viability at 72 h, 1000 µM [1] [%]	cytotoxicity at 72 h, 100 µM [1] [%]	viability at 72 h, 100 µM [1] [%]	cytotoxicity at 72 h, 10 µM [1] [%]	viability at 72 h, 10 µM [1] [%]	cytotoxicity at 72 h, 1 µM [1] [%]	viability at 72 h, 1 µM [1] [%]	cytotoxicity at 72 h, 0.1 µM [1] [%]	viability at 72 h, 0.1 µM [1] [%]	cytotoxicity at 72 h, 0.01 µM [1] [%]	viability at 72 h, 0.01 µM [1] [%]	O.D. Reading (SC-1 cells; 1 × 10^-3 M)	O.D. Reading (SC-1 cells; 1 × 10^-4 M)	O.D. Reading (SC-1 cells; 1 × 10^-5 M)	O.D. Reading (SC-1 cells; 1 × 10^-6 M)	O.D. Reading (SC-1 cells; 1 × 10^-7 M)	O.D. Reading (SC-1 cells; 1 × 10^-8 M)	further results
O=[N+]([O-])c1ccccc1S(=O)(=O)c1ccccc1 [Compound 1, 1-Nitro-2-(phenylsulfonyl)benzene]	1.16	45	55	15	85	3	97	2	98	0	101	1	99	0.851	1.320	1.504	1.522	1.566	1.530	viability at 0.179 µM ([2]; 1.79 × 10^-7 Molar): 123%; viability at 189 µM ([2]; 1.89 × 10^-4 Molar): 86.7%; viability at 18.9 µM ([2]; 1.89 × 10^-5 Molar): 99.9%; viability at 1.89 µM ([2]; 1.89 × 10^-6 Molar): 97.9%; viability at 0.19 µM ([2]; 1.90 × 10^-7 Molar): 96.9%; viability at 59.8 µM ([2]; 5.98 × 10^-5 Molar): 105%; viability at 5.99 µM ([2]; 5.99 × 10^-6 Molar): 111%; viability at 0.6 µM ([2]; 6.00 × 10^-7 Molar): 90.4%; viability at 0.0601 µM ([2]; 6.01 × 10^-8 Molar): 105%; Uninfected culture response (CEM-V; 1.79 × 10^-7 Molar, 0.179 µM): 106.5%; Uninfected culture response (CEM-V; 1.89 × 10^-4 Molar, 189 µM): 89.8%; Uninfected culture response (CEM-V; 1.89 × 10^-5 Molar, 18.9 µM): 100.7%; Uninfected culture response (CEM-V; 1.89 × 10^-6 Molar, 1.89 µM): 104.6%; Uninfected culture response (CEM-V; 1.90 × 10^-7 Molar, 0.19 µM): 105.1%; Uninfected culture response (CEM-V; 5.67 × 10^-7 Molar, 0.567 µM): 112.5% and 77.9%; Uninfected culture response (CEM-V; 5.68 × 10^-8 Molar, 0.0568 µM): 120.4% and 99.0%; Uninfected culture response (CEM-V; 5.98 × 10^-5 Molar, 59.8 µM): 99.2%; Uninfected culture response (CEM-V; 5.99 × 10^-6 Molar, 5.99 µM): 111.3%; Uninfected culture response (CEM-V; 6.00 × 10^-7 Molar, 0.6 µM): 98.3%; Uninfected culture response (CEM-V; 6.01 × 10^-8 Molar, 0.0601 µM): 101.6%
Cc1ccc(S(=O)(=O)c2ccccc2[N+](=O)[O-])cc1 [Compound 2, 1-(4-Methylphenylsulfonyl)-2-nitrobenzene]	3.26	31	69	13	87	8	92	8	92	8	92	9	91	1.066	1.345	1.425	1.418	1.429	1.411	colour change on storage [3]: turned light green

Reference: US5679695A, “Aryl and heteroaryl compounds having anti-retrovirus activity” (The University of Connecticut, priority 1995, dated 1997)
